Assay results: publication PMC4319564 (Journal of materials chemistry. B, Materials for biology …, 2014)

Tested on: PTX-resistant KB-V1 cervical cancer cells
Test: Cytotoxicity, SRB assay
Type: cell-based
Details: 48 h incubation, 0.01-1000 nM, triplicate

Question: CC(=O)O[C@H]1C(=O)[C@@]2(C)[C@H]([C@H](OC(=O)c3ccccc3)[C@]3(O)C[C@H](OC(=O)[C@H](O)[C@@H](NC(=O)c4ccccc4)c4ccccc4)C(C)=C1C3(C)C)[C@]1(OC(C)=O)CO[C@@H]1C[C@@H]2O [PTX, paclitaxel] was tested. Which “Toxicity (in words)” value did it give?
Answer: do not exert any toxicity
